{"source": "patent US20260000632A1", "about": "“STRUCTURALLY MODIFIED FATTY ACIDS FOR IMPROVING GLYCEMIC CONTROL AND TREATING INFLAMMATORY BOWEL DISEASE” (Northsea Therapeutics B.V., priority 2018, published 2026)", "key": {"active GLP-1": {"system": "active GLP-1", "assay": "Active GLP-1 during oral glucose tolerance test (OGTT) and at 24 h in lean male SPD rats", "assay_type": "in vivo, rat", "procedure": "(§1) To establish the acute effects of oral administration of Compound A and Compound B upon active GLP-1 and insulin concentrations, lean (about 300 g) male Sprague-Dawley (SPD) rats were divided into groups (n=6-8) and fed 74 and 84 mg/kg body weight of Compound A or Compound B respectively, either with or without concurrent administration of a dipeptidyl peptidase 4 (DPP-4) inhibitor 60 minutes prior to an oral glucose tolerance test (OGTT) as outlined below. Parallel groups receiving either corn oil alone (corn oil+vehicle, n=10) or corn oil and a DPP-4 inhibitor (“DPP-4 i”) (corn oil+ (DPP-4 i), n=10) were included as controls. The DPP-4 inhibitor was linagliptin.\n(§2) A second oral dose of 74 and 84 mg/kg bodyweight of Compound A or Compound B respectively was administered at 240 minutes and ad lib feeding was initiated. A second dose of DPP-4 inhibitor was administered at 480 mins prior to lights out. Blood samples were collected at 24 h for measurement of active GLP-1 and insulin. All values are mean, figures depict mean values (SEM)."}, "plasma insulin": {"system": "plasma insulin", "assay": "Plasma insulin at 24 h in lean male SPD rats", "assay_type": "in vivo, rat", "conditions": "Compound A 74 mg/kg or Compound B 84 mg/kg oral, non-significant", "procedure": "as §1, §2"}, "[1]": {"system": "DSS-induced colitis C56BL/6J mice", "assay": "DSS-induced colitis mouse model (body weight, colon length, survival, histology)", "assay_type": "in vivo", "conditions": "for Difference in weight loss between control and treated group / Survival rate 7 days after colitis was induced: 1.5% DSS; for Survival rate 7 days after colitis was induced: C56BL/6J mice (control 50%)", "description": "The dextran sodium sulphate-induced (DSS)-induced colitis model is well known in the art as a reproducible chemical induction of intestinal inflammation animal model. See, e.g., Eichele et al., World J Gastroenterol, 2017, 23(33):6016-6029; Randhawa et al., Korean J. Physiol. Pharmacol. (2014) 18:279-288; Jurjus et al., J. Pharmacol. Toxicol., Methods, 2004, 50:81-92; Gaudio et al., Dig. Dis. Sci., 1999, 44:1458-1475. The DSS-induced colitis model morphologically and symptomatically resembles epithelial damage seen in human IBD, and thus has become the most extensively employed experimental model of intestinal inflammation. Okayasu et al., Gastroenterology, 1990, 98:694-702; Kawada et al., World J. Gastroenterol. 2007, 13:5581-5593. The DSS-induced colitis model is most similar to ulcerative colitis in humans, but also has many similarities to Crohn's disease.\nDSS is a water soluble, negatively charged sulfated polysaccharide with a highly variable molecular weight ranging from 5 to 1400 kDa. Murine colitis results from administration of about 1% to 3% DSS to the drinking water of a mouse strain susceptible to DSS-induced colitis. Without being bound by theory, the sulfated polysaccharide may not directly induce intestinal inflammation, but may instead act as a direct chemical toxin to colonic epithelium resulting in epithelial cell injury. It is thought that DSS disrupts the intestinal epithelial monolayer lining, leading to the entry of luminal bacteria and associated antigens into the mucosa and allowing the dissemination of proinflammatory intestinal contents into underlying tissue. […] Perse et al., J. Biomed. Biotechnol., 2012:718617.\nThe C56BL/6J mouse is a strain susceptible to DSS-induced colitis. To evaluate the efficacy and dosage of Compound B in treatment of DSS-induced colitis, inflammation was induced in 30 9-week old C56BL/6J mice by adding 1.5% DSS to the drinking water for 7 days. The mice were fed a standard chow diet that consisted of 30 weight percent wheat. The mice were divided into three groups of 10, and for each day of DSS administration each group was administered via oral gavage either (1) 100 μL corn oil per day (Control), (2) 126 mg/kg Compound B (dissolved in 100 μL corn oil) per day (“Compound B-Low” or “Compound B-L”), or (3) 252 mg/kg Compound B (dissolved in 100 μL corn oil) per day (“Compound B-High” or “Compound B-H”). Following the 7-day period of DSS induction, mice were sacrificed and their intestinal tissue was used for histopathological and gene expression analysis.\nTo assess the efficacy of Compound B in the treatment of DSS-induced colitis in mice, the body weight of mice was monitored. Weight loss is an indicator of colitis severity.\nTo assess the efficacy of Compound B in the treatment of DSS-induced colitis in mice, colon length of test mice was measured. Colon length correlates inversely with inflammation.\nHistopathological analysis was performed on sections of formalin-fixed paraffin embedded tissue after hematoxylin and eosin (H&E) staining. Colonic samples were analyzed by histopathology for assignment of scores for colitis activity as described in Neurath et al., J. Exp. Med., 2002, 195:1129-1143. Briefly, the degrees of inflammation and epithelial and mucosal injury on microscopic cross-sections of the colon were graded semi-quantitatively from 0 to 4. For inflammation, a score of 0=no evidence for inflammation; 1=low level of inflammation with scattered infiltrating mononuclear cells (1-2 foci only); 2=moderate inflammation with multiple foci; 3=high level of inflammation with increased vascular density and marked wall thickening; and 4=maximal severity of inflammation with transmural leukocyte infiltration and loss of goblet cells. For injury, a score of 0=no epithelial injury; 1=occasional epithelial lesion; 2=1-2 foci of ulcerations; and 3=extensive ulcerations. […]"}, "atherogenic lipids": {"system": "atherogenic lipids", "conditions": "APOE*3.CETP mice; cited from earlier work"}, "[2]": {"conditions": "high dose, 252 mg/kg per day, 7 days 1.5% DSS"}}}
{"smiles": "CC/C=C\\C/C=C\\C/C=C\\C/C=C\\C/C=C\\CCCCSC(CC)(CC)C(=O)O", "note": "[Compound B, 2-ethyl-2-((5Z,8Z,11 Z,14Z,17Z)-icosa-5,8,11,14,17-pentaenylthio)butanoic acid]", "values": [{"measurement": "Increase in active GLP-1 (AUC 0-60 mins) versus corn oil+vehicle", "setting": "active GLP-1; Compound B 84 mg/kg oral in combination with DPP4 inhibitor (linagliptin), OGTT, p<0.05", "value": "> 2", "unit": "fold"}, {"measurement": "Effect on active GLP-1 concentration at 24 h versus corn oil+vehicle", "setting": "active GLP-1; in combination with DPP4 inhibitor, Compound A 74 mg/kg or Compound B 84 mg/kg oral, two doses", "value": "significantly (p<0.01) increased"}, {"measurement": "Increase in plasma insulin concentration at 24 h versus corn oil+vehicle and corn oil+DPP4 inhibitor", "setting": "plasma insulin; compound alone", "value": 25, "unit": "%"}, {"measurement": "Increase in plasma insulin concentration at 24 h versus corn oil+vehicle and corn oil+DPP4 inhibitor", "setting": "plasma insulin; in combination with DPP4 inhibitor", "value": 40, "unit": "%"}, {"measurement": "Difference in weight loss between control and treated group", "setting": "[1]; 126 mg/kg per day (Compound B-Low) oral gavage, C56BL/6J mice", "value": "statistically significant after 7 days"}, {"measurement": "Difference in weight loss between control and treated group", "setting": "[1]; 252 mg/kg per day (Compound B-High) oral gavage, C56BL/6J mice", "value": "statistically significant after 6 days"}, {"measurement": "Body weight loss compared to control", "setting": "[1]; 126 and 252 mg/kg per day oral gavage, 7 days 1.5% DSS, C56BL/6J mice", "value": "dose-dependent reduction in weight loss"}, {"measurement": "Histology of colon cross-sections in treated mice", "setting": "[1]; 126 and 252 mg/kg per day, 7 days 1.5% DSS", "value": "dose-dependent attenuation of inflammatory infiltrates and edema"}, {"measurement": "Colon length compared to control", "setting": "[1]; both low (126 mg/kg) and high (252 mg/kg) doses per day, 7 days 1.5% DSS, C56BL/6J mice", "value": "significant increase in colon length"}, {"measurement": "Survival rate 7 days after colitis was induced", "setting": "[1]; high dose, 252 mg/kg per day oral gavage", "value": 100, "unit": "%"}, {"measurement": "Histological cross-sections of colon, morphology", "setting": "[1]; [2]", "value": "almost complete rescue"}, {"measurement": "Inflammation and epithelial and mucosal injury versus untreated mice", "setting": "[1]; [2]", "value": "lower"}, {"measurement": "Histological scores of colon versus untreated mice", "setting": "[1]; high dose, 252 mg/kg per day, 7 days 1.5% DSS, H&E", "value": "significantly lower"}, {"measurement": "Survival rate 7 days after colitis was induced", "setting": "[1]; low dose, 126 mg/kg per day oral gavage", "value": 90, "unit": "%"}, {"measurement": "Effect on atherogenic lipids", "setting": "atherogenic lipids", "value": "significantly reduce atherogenic lipids"}]}
